One experiment relates to HBV rcDNA in HepDE19 cells. As to the kind of experiment: HepDE19 assay with bDNA quantitation of HBV rcDNA. The class given is cell-based, hepatitis B virus (HBV). Particulars: HepDE19 cells, 7 day incubation, rcDNA by Quantigene 2.0 bDNA assay; read-out: DE-19 bDNA EC50. How it is done: HepDE19 Assay with bDNA Quantitation of HBV rcDNA:
HepDE19 cell culture system is a HepG2 (human hepatocarcinoma) derived cell line that supports HBV DNA replication and cccDNA formation in a tetracycline (Tet)-regulated manner and produces HBV rcDNA and a detectable reporter molecule dependent on the production and maintenance of cccDNA (Guo, et al., 2007, J. Virol. 81:12472-12484).
HepDE19 (50,000 cells/well) were plated in 96 well collagen-coated tissue-culture treated microtiter plates in DMEM/F12 medium supplemented with 10% fetal bovine serum, 1% penicillin-streptomycin and 1 μg/mL tetracycline and incubated in a humidified incubator at 37° C. and 5% CO2 overnight. Next day, the cells were switched to fresh medium without tetracycline and incubated for 4 hours at 37° C. and 5% CO2. The cells were treated with fresh Tet-free medium with compounds at concentrations starting at 25 μM and a serial, ½ log, 8-point, titration series in duplicate. The final DMSO concentration in the assay was 0.5%. The plates were incubated for 7 days in a humidified incubator at 37° C. and 5% CO2. Following a 7 day-incubation, the level of rcDNA present in the inhibitor-treated wells was measured using a Quantigene 2.0 bDNA assay kit (Affymetrix, Santa Clara, Calif.) with HBV specific custom probe set and manufacturers instructions. Concurrently, the effect of compounds on cell viability was assessed using replicate plates, plated at a density of 5,000 cells/well and incubated for 4 days, to determine the ATP content as a measure of cell viability using the cell-titer glo reagent (CTG; Promega Corporation, Madison, Wis.) as per manufacturer's instructions. The plates were read using a Victor luminescence plate reader (PerkinElmer Model 1420 Multilabel counter) and the relative luminescence units (RLU) data generated from each well was calculated as % inhibition of the untreated control wells and analyzed using XL-Fit module in Microsoft Excel to determine EC50 and EC90 (bDNA) and CC50 (CTG) values using a 4-parameter curve fitting algorithm.
Representative compounds of the invention were tested for their ability to inhibit formation of relaxed circular DNA (rcDNA) in a HepDE19 assay, as described elsewhere herein.
Usually EC50 stands for the concentration giving half of the maximal effect. Turning to `CNC(=O)CC1CCOc2c(C(=O)Nc3ccc(F)c(F)c3)cccc21` (single isomer, unassigned) [Compound 132, N-(3,4-difluorophenyl)-4-(2-(methylamino)-2-oxoethyl) chromane-8-carboxamide], the concentration giving a half-maximal response (EC50) worked out at 21 µM.
Regarding `O=C(N[C@H]1CCOc2c(C(=O)Nc3ccc(F)c(F)c3)cccc21)OCC1CCNC1` (single isomer, unassigned) [Compound 109], the EC50 stood at 21 µM.

The same experiment, now with this note: Hepatitis B virus, HepDE19, 168 h, HepDE19 cells, 7 day incubation, rcDNA by Quantigene 2.0 bDNA assay; read-out: DE-19 bDNA EC50.
In the case of `O=C1CCOc2c1cccc2C(=O)Nc1ccc(F)c(F)c1` [Compound 2, N-(3,4-difluorophenyl)-4-oxochromane-8-carboxamide], the EC50 worked out at 2.3 µM.
Consider `O=C(N[C@H]1CCOc2c1ccc(Cl)c2C(=O)Nc1ccc(F)c(F)c1)OCc1ccccn1` [Compound 90, Pyridin-2-ylmethyl (S)-(7-chloro-8-((3,4-difluorophenyl)carbamoyl)chroman-4-yl)carbamate], for which the 50% effective concentration (EC50) is 8.4 µM.
`O=C1CC[C@@H](COC(=O)N[C@H]2CCOc3c(C(=O)Nc4ccc(F)c(F)c4)cccc32)N1` [Compound 118, ((S)-5-Oxopyrrolidin-2-yl)methyl ((S)-8-((3,4-difluorophenyl)carbamoyl)chroman-4-yl)carbamate]: the 50% effective concentration (EC50) amounted to 3.6 µM.
For `Cc1cc(NC(=O)c2ccc(F)c3c2OCC[C@@H]3NC(=O)OCc2ncccn2)ccc1F` [Compound 120, Pyrimidin-2-ylmethyl (S)-(5-fluoro-8-((4-fluoro-3-methylphenyl)carbamoyl)chroman-4-yl)carbamate], the concentration giving a half-maximal response (EC50) amounted to 0.54 µM.
As to `O=C(Nc1ccc(F)c(F)c1)c1cccc2c1OCC[C@H]2NC(=O)N1CCCC1` [Compound 24, (R)-N-(8-((3,4-difluorophenyl)carbamoyl)chroman-4-yl)pyrrolidine-1-carboxamide], the EC50 stood at 24 µM.
`Cc1cc(NC(=O)c2ccc(F)c3c2OCC[C@@H]3NC(=O)OCc2cccc(N3CCOCC3)n2)ccc1F` [Compound 167, (6-Morpholinopyridin-2-yl)methyl (S)-(5-fluoro-8-((4-fluoro-3-methylphenyl)carbamoyl)chroman-4-yl)carbamate]: the EC50 is 1.8 µM.
With `COC(=O)N[C@H]1CCOc2c(C(=O)Nc3ccc(F)c(Cl)c3)cccc21` [Compound 32, Methyl (S)-(8-((3-chloro-4-fluorophenyl)carbamoyl)chroman-4-yl)carbamate], the concentration giving a half-maximal response (EC50) turned out to be 0.85 µM.
Regarding `COC(=O)N[C@H]1CCOc2c(C(=O)NCc3cccc(F)c3)cccc21` [Compound 36, methyl (S)-(8-((3-fluorobenzyl)carbamoyl)chroman-4-yl)carbamate], the concentration giving a half-maximal response (EC50) stood at 22 µM.
Take `Cc1cnc(N[C@H]2CCOc3c(C(=O)Nc4ccc(F)c(F)c4)cccc32)nc1` [Compound 58, (S)—N-(3,4-Difluorophenyl)-4-((5-methylpyrimidin-2-yl)amino)chromane-8-carboxamide]: the EC50 was 9.7 µM.
On the same count and under the same terms, under `CNC(=O)N[C@@H]1CCOc2c(C(=O)Nc3ccc(F)c(F)c3)ccc(F)c21` [Compound 41, (R)-N-(3,4-difluorophenyl)-5-fluoro-4-(3-methylureido) chromane-8-carboxamide] stands 23 µM.

The same experiment, now with this note: Hepatitis B virus, HepDE19, 168 h, read-out: DE-19 bDNA EC50, HepDE19 cells, 7 day incubation, rcDNA by Quantigene 2.0 bDNA assay.
As to `COC(=O)N[C@@H]1CCOc2c(C(=O)Nc3ccc(F)c(Cl)c3)ccc(F)c21` [Compound 92, (R)-Methyl (8-((3-chloro-4-fluorophenyl)carbamoyl)-5-fluorochroman-4-yl) carbamate], the 50% effective concentration (EC50) stood at 4.6 µM.
The same measure, in the same setting: under `CC(C)OC(=O)N[C@H]1CCOc2c(C(=O)Nc3ccc(F)c(F)c3)cccc21` [Compound 20, Isopropyl (8-((3,4-difluorophenyl)carbamoyl)chroman-4-yl)carbamate] stands 14 µM.

The experiment is the same for the next values; noted with them: read-out: DE-19 bDNA EC50; HepDE19 cells, 7 day incubation, rcDNA by Quantigene 2.0 bDNA assay.
For the compound `COC(=O)NC1CCN(C)c2c(C(=O)Nc3ccc(F)c(Cl)c3)cccc21` (single isomer, unassigned) [Compound 178, Methyl (8-((3-chloro-4-fluorophenyl)carbamoyl)-1-methyl-1,2,3,4-tetrahydroquinolin-4-yl)carbamate], the EC50 came out at 13 µM.

For the origin of these results see patent publication US11001564B2, “Substituted chromane-8-carboxamide compounds and analogues thereof, and methods using same” (priority 2016, dated 2021).
